One data set concerns the target T1, Alpha-2C adrenergic receptor (Homo sapiens, UniProt P18825).
T1 sequence (P18825 whole entry): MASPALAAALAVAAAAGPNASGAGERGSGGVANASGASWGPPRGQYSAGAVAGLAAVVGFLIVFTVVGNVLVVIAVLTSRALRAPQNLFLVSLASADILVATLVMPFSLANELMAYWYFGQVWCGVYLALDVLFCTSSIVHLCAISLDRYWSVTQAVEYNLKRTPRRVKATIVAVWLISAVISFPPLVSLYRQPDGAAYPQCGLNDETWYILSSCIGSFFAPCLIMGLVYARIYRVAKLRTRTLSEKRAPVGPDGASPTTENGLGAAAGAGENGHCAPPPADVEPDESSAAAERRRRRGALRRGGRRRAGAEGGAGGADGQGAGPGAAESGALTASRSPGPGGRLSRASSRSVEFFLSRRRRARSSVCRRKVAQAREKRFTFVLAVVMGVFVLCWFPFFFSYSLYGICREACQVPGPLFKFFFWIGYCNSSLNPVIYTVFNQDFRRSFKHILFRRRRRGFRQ
In words: DRUGMATRIX: Adrenergic Alpha-2C radioligand binding (ligand: [3H] MK-912). To be noted: sf9. The class given is cell membranes, Sf9, Membrane.
Chain of Kappa-type opioid receptor (P41145 whole entry): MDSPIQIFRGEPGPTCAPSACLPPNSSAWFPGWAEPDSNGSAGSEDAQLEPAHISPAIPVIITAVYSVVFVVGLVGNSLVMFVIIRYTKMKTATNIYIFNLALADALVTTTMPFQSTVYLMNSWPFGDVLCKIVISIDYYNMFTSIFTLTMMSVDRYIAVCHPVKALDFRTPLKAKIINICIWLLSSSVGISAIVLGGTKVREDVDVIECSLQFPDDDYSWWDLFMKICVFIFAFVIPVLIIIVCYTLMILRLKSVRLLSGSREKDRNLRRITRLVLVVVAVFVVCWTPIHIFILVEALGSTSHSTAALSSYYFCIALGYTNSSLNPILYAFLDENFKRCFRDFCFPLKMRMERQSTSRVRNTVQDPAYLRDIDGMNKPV
For `Cc1c(-c2ccccc2)oc2c(C(=O)OCCN3CCCCC3)cccc2c1=O` [FLAVOXATE], the IC50 result is listed as “Not Active”.

For `O=c1[nH]cc(F)c(=O)[nH]1` [FLUOROURACIL], the IC50 result is listed as “Not Active”.

On to `COc1ccc2cc(CC(=O)O)ccc2c1`, for which the IC50 result is on record as “Not Active”.

The target of another data set is Cannabinoid receptor 1 (Homo sapiens, UniProt P21554). Format: cell membranes, Membrane. To be noted: chem-1. Note: in other assays of this panel Not Active means under 50% inhibition at 10 µM.
Chain of Cannabinoid receptor 1 (P21554 whole entry): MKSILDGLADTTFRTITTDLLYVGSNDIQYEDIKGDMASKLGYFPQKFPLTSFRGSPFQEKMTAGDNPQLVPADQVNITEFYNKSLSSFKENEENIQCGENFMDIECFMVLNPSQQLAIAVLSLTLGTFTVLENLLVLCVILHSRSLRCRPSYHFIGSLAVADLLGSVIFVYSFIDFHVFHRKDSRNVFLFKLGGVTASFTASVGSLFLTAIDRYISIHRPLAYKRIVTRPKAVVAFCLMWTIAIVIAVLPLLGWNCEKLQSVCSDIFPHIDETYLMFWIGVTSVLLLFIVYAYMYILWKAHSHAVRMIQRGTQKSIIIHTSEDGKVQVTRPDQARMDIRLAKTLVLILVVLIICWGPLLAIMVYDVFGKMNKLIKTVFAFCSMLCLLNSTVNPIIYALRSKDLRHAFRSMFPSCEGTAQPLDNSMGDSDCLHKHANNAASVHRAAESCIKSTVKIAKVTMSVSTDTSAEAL
As to `Cc1c(-c2ccccc2)oc2c(C(=O)OCCN3CCCCC3)cccc2c1=O` [FLAVOXATE], the IC50 result is “Not Active”.

As for `O=c1[nH]cc(F)c(=O)[nH]1` [FLUOROURACIL], the IC50 result is reported as “Not Active”.

In the case of `COc1ccc2cc(CC(=O)O)ccc2c1`, the IC50 entry is “Not Active”.

Test system in a further data set: not listed separately
In words: DRUGMATRIX: Atrial Natriuretic Factor (ANF) radioligand binding (ligand: [125I] ANF (rat)). Format: cell membranes, Cavia porcellus, Dunkin-Hartley, Adrenal gland, Membrane. To be noted: Not Active = under 50% inhibition at 10 µM.
Regarding `Cc1c(-c2ccccc2)oc2c(C(=O)OCCN3CCCCC3)cccc2c1=O` [FLAVOXATE], the IC50 entry is recorded as “Not Active” and the Ki entry is “Not Active”.

Consider `O=c1[nH]cc(F)c(=O)[nH]1` [FLUOROURACIL], for which the IC50 entry was “Not Active” and the Ki entry is recorded as “Not Active”.

As to `COc1ccc2cc(CC(=O)O)ccc2c1`, the IC50 entry is “Not Active” and the Ki entry is reported as “Not Active”.

In a further data set the target is Cytochrome P450 2C9 (Homo sapiens, UniProt P11712). To be noted: bti-tn-5b1-4. Note: in other assays of this panel Not Active means under 50% inhibition at 10 µM.
Chain of Cytochrome P450 2C9 (P11712 whole entry): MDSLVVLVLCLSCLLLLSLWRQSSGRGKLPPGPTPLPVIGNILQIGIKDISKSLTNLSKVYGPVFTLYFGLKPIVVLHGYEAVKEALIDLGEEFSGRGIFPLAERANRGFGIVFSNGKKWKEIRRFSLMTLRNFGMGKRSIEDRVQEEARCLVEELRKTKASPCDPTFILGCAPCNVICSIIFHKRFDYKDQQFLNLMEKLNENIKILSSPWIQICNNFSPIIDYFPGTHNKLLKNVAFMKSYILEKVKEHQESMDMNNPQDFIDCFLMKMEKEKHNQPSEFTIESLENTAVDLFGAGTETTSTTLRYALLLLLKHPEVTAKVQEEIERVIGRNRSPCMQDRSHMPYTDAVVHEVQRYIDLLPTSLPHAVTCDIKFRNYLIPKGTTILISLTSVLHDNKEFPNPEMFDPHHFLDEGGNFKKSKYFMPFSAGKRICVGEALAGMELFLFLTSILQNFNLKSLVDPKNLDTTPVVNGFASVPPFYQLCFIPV
Turning to `Cc1c(-c2ccccc2)oc2c(C(=O)OCCN3CCCCC3)cccc2c1=O` [FLAVOXATE], the IC50 entry is recorded as “Not Active” and the Ki result was “Not Active”.

Turning to `O=c1[nH]cc(F)c(=O)[nH]1` [FLUOROURACIL], the IC50 entry is “Not Active” and the Ki entry is “Not Active”.

In the case of `COc1ccc2cc(CC(=O)O)ccc2c1`, the IC50 entry is “Not Active” and the Ki entry is listed as “Not Active”.

For another data set, the target named is T2, Muscarinic acetylcholine receptor M2 (Homo sapiens, UniProt P08172). Note: in other assays of this panel Not Active means under 50% inhibition at 10 µM.
T2 sequence (P08172 whole entry): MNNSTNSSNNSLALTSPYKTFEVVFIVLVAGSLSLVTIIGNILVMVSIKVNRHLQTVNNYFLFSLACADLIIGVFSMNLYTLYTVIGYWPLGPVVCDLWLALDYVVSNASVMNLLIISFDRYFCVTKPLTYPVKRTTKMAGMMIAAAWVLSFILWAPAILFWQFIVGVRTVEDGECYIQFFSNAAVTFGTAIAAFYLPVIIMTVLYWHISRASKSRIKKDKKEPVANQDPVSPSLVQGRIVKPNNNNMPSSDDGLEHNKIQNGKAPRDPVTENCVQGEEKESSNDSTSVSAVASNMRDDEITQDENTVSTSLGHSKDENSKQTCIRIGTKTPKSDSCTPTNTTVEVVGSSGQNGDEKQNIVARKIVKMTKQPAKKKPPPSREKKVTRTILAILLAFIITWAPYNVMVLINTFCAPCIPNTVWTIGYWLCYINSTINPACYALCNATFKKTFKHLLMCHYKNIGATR
The class given is cell membranes, CHO-K1, Membrane. To be noted: cho-k1.
`Cc1c(-c2ccccc2)oc2c(C(=O)OCCN3CCCCC3)cccc2c1=O` [FLAVOXATE]: the IC50 result is “Not Active”.

`O=c1[nH]cc(F)c(=O)[nH]1` [FLUOROURACIL]: the IC50 entry is given as “Not Active”.

Regarding `COc1ccc2cc(CC(=O)O)ccc2c1`, the IC50 entry is listed as “Not Active”.

The next data set addresses T3, 5-hydroxytryptamine receptor 1A (Rattus norvegicus, UniProt P19327).
T3 sequence (P19327 whole entry): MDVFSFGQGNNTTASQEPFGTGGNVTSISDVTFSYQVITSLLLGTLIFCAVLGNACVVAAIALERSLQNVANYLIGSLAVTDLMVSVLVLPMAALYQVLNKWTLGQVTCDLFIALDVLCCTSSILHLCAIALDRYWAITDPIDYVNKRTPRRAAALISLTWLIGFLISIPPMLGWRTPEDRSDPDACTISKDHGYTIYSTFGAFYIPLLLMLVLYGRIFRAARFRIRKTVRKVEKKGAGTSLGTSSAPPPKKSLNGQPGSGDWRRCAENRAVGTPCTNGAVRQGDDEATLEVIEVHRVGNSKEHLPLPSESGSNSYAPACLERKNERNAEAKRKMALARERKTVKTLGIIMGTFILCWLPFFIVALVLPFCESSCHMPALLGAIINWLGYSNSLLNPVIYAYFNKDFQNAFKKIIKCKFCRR
The class given is cell membranes, CHO-K1, Membrane. To be noted: cho-k1.
In the case of `Cc1c(-c2ccccc2)oc2c(C(=O)OCCN3CCCCC3)cccc2c1=O` [FLAVOXATE], the IC50 result was “Not Active”.

As for `O=c1[nH]cc(F)c(=O)[nH]1` [FLUOROURACIL], the IC50 result was “Not Active”.

Consider `COc1ccc2cc(CC(=O)O)ccc2c1`, for which the IC50 result is “Not Active”.

Another data set addresses Protein phosphatase 3 catalytic subunit alpha (Homo sapiens, UniProt Q08209). Also noted: species or system Escherichia coli.
Conditions: not given
As for `Cc1c(-c2ccccc2)oc2c(C(=O)OCCN3CCCCC3)cccc2c1=O` [FLAVOXATE], the IC50 result is “Not Active”.

Consider `O=c1[nH]cc(F)c(=O)[nH]1` [FLUOROURACIL], for which the IC50 entry is reported as “Not Active”.

Turning to `COc1ccc2cc(CC(=O)O)ccc2c1`, the IC50 result is listed as “Not Active”.

In another data set the target is Sodium-dependent noradrenaline transporter (Homo sapiens, UniProt P23975). In words: DRUGMATRIX: Norepinephrine Transporter radioligand binding (ligand: [125I] RTI-55). To be noted: mdck; Not Active = under 50% inhibition at 10 µM. Format: cell membranes, MDCK, Membrane.
Chain of Sodium-dependent noradrenaline transporter (P23975 whole entry): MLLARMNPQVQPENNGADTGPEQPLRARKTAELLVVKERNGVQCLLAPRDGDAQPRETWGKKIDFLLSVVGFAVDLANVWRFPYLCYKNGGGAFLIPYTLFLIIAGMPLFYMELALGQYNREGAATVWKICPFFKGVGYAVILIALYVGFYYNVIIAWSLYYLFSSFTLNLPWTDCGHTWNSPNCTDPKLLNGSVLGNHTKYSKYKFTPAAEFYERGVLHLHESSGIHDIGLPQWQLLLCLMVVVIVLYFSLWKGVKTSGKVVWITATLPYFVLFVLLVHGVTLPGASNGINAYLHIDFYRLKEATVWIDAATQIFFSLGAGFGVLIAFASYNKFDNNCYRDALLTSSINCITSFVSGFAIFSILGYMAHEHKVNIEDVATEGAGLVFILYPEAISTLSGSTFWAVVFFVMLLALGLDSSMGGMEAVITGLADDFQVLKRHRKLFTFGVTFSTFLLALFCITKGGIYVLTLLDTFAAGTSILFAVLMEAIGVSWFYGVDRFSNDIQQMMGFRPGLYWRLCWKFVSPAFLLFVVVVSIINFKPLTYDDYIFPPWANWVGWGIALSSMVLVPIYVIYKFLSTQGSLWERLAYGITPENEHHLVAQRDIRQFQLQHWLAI
Regarding `Cc1c(-c2ccccc2)oc2c(C(=O)OCCN3CCCCC3)cccc2c1=O` [FLAVOXATE], the IC50 result was “Not Active”.

With `O=c1[nH]cc(F)c(=O)[nH]1` [FLUOROURACIL], the IC50 result was “Not Active”.

Turning to `COc1ccc2cc(CC(=O)O)ccc2c1`, the IC50 entry was “Not Active”.

Test system in a further data set: not listed separately
Put plainly: DRUGMATRIX: Calcium Channel Type L, Dihydropyridine radioligand binding (ligand: [3H] Nitrendipine). To be noted: Not Active = under 50% inhibition at 10 µM. Format: cell membranes, Rattus norvegicus, Wistar, Cerebral cortex, Membrane.
Turning to `Cc1c(-c2ccccc2)oc2c(C(=O)OCCN3CCCCC3)cccc2c1=O` [FLAVOXATE], the IC50 entry is recorded as “Not Active” and the Ki result was “Not Active”.

Regarding `O=c1[nH]cc(F)c(=O)[nH]1` [FLUOROURACIL], the IC50 entry is on record as “Not Active” and the Ki entry is given as “Not Active”.

As to `COc1ccc2cc(CC(=O)O)ccc2c1`, the IC50 result is recorded as “Not Active” and the Ki result is reported as “Not Active”.

In the next data set the target is Beta-2 adrenergic receptor (Homo sapiens, UniProt P07550). In words: DRUGMATRIX: Adrenergic beta2 radioligand binding (ligand: [3H] CGP-12177). To be noted: cho; Not Active = under 50% inhibition at 10 µM. Format: cell membranes, Membrane.
Chain of Beta-2 adrenergic receptor (P07550 whole entry): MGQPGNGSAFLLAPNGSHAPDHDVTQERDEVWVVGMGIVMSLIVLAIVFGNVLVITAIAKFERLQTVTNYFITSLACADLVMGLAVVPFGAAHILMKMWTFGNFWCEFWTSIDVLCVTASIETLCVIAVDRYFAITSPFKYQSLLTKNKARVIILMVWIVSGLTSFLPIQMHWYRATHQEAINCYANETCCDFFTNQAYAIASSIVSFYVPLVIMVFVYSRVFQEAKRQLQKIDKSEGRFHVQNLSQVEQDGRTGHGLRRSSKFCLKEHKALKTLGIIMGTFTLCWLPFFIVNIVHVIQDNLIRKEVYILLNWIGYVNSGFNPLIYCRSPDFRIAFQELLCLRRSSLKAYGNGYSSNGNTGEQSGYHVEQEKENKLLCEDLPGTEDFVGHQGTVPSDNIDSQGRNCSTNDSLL
As to `Cc1c(-c2ccccc2)oc2c(C(=O)OCCN3CCCCC3)cccc2c1=O` [FLAVOXATE], the IC50 entry is listed as “Not Active”.

As to `O=c1[nH]cc(F)c(=O)[nH]1` [FLUOROURACIL], the IC50 result is listed as “Not Active”.

In the case of `COc1ccc2cc(CC(=O)O)ccc2c1`, the IC50 result is “Not Active”.

Test system in another data set: not listed separately
In words: DRUGMATRIX: Phosphodiesterase PDE3 enzyme inhibition (substrate: [3H]cAMP + cAMP). The class given is tissue-based, Homo sapiens. To be noted: platelet; Not Active = under 50% inhibition at 10 µM.
On to `Cc1c(-c2ccccc2)oc2c(C(=O)OCCN3CCCCC3)cccc2c1=O` [FLAVOXATE], for which the IC50 entry is reported as “Not Active” and the Ki result is reported as “Not Active”.

As for `O=c1[nH]cc(F)c(=O)[nH]1` [FLUOROURACIL], the IC50 entry is given as “Not Active” and the Ki result was “Not Active”.

In the case of `COc1ccc2cc(CC(=O)O)ccc2c1`, the IC50 result is “Not Active” and the Ki result is “Not Active”.

Another data set has as its target T4, Endothelin-1 receptor (Homo sapiens, UniProt P25101). Note: in other assays of this panel Not Active means under 50% inhibition at 10 µM.
T4 sequence (P25101 whole entry): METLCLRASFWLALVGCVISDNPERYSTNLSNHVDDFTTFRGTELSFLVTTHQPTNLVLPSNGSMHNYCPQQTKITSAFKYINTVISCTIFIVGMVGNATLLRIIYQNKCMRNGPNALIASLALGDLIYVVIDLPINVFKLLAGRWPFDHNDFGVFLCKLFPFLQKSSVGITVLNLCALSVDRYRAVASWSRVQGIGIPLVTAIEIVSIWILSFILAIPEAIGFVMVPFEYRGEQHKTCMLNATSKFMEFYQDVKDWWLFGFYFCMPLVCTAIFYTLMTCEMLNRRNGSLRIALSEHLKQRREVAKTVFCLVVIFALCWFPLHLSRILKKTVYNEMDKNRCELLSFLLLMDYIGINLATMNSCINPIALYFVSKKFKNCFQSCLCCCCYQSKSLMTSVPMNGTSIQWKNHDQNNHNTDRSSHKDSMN
The class given is cell membranes, Membrane. To be noted: cho-k1.
On to `Cc1c(-c2ccccc2)oc2c(C(=O)OCCN3CCCCC3)cccc2c1=O` [FLAVOXATE], for which the IC50 result was “Not Active”.

`O=c1[nH]cc(F)c(=O)[nH]1` [FLUOROURACIL]: the IC50 entry is reported as “Not Active”.

`COc1ccc2cc(CC(=O)O)ccc2c1`: the IC50 entry was “Not Active”.

The next data set addresses Kappa-type opioid receptor (Homo sapiens, UniProt P41145). In words: DRUGMATRIX: Opiate kappa (OP2, KOP) radioligand binding (ligand: [3H] Diprenorphine). Format: cell membranes, HEK293, Membrane. To be noted: hek293; Not Active = under 50% inhibition at 10 µM.
On to `Cc1c(-c2ccccc2)oc2c(C(=O)OCCN3CCCCC3)cccc2c1=O` [FLAVOXATE], for which the IC50 result is “Not Active”.

Regarding `O=c1[nH]cc(F)c(=O)[nH]1` [FLUOROURACIL], the IC50 result is listed as “Not Active”.

Take `COc1ccc2cc(CC(=O)O)ccc2c1`: the IC50 entry is reported as “Not Active”.

Test system in the next data set: not listed separately
In words: DRUGMATRIX: GABAA, Flunitrazepam, Central radioligand binding (ligand: [3H] Flunitrazepam). Format: cell membranes, Rattus norvegicus, Wistar, Brain, Membrane. To be noted: Not Active = under 50% inhibition at 10 µM.
As to `Cc1c(-c2ccccc2)oc2c(C(=O)OCCN3CCCCC3)cccc2c1=O` [FLAVOXATE], the IC50 entry is on record as “Not Active” and the Ki entry is recorded as “Not Active”.

Turning to `O=c1[nH]cc(F)c(=O)[nH]1` [FLUOROURACIL], the IC50 entry is “Not Active” and the Ki result was “Not Active”.

As to `COc1ccc2cc(CC(=O)O)ccc2c1`, the IC50 result is “Not Active” and the Ki entry is recorded as “Not Active”.
